Tests used:
Melanocortin receptor 4 [1] = biological target: T1, Melanocortin receptor 4 (Homo sapiens, UniProt P32245); assay: Maximum percentage of cAMP accumulation relative to alpha-MSH at human melanocortin 4 receptor at 10 uM; assay type: functional
Melanocortin receptor 4 [2] = biological target: T1, Melanocortin receptor 4; assay: Effective concentration at human melanocortin 4 receptor in cAMP release assay; assay type: functional
Melanocortin receptor 4 [3] = biological target: T1, Melanocortin receptor 4; assay: Inhibition of [125I]-NDP- alpha-MSH binding to human melanocortin 4 receptor expressed in CHO cells; assay type: cell-based
Melanocortin receptor 4 [4] = biological target: T1, Melanocortin receptor 4; assay: Maximum percentage of cAMP accumulation compared to alpha-MSH at human melanocortin 4 receptor at 10 uM; assay type: functional

T1 sequence (P32245 whole entry): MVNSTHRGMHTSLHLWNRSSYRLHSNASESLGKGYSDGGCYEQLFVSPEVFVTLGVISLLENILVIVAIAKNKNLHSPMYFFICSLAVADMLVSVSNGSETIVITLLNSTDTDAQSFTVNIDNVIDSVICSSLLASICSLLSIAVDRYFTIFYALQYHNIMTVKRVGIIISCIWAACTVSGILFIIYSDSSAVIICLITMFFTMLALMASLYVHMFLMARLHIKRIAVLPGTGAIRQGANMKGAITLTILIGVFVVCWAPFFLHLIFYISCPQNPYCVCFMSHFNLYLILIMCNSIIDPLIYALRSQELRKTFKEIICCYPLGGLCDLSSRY

| SMILES | Max (Melanocortin receptor 4 [1]) [%] | EC50 (Melanocortin receptor 4 [2]) [nM] | IC50 (Melanocortin receptor 4 [3]) [nM] | Max (Melanocortin receptor 4 [4]) [%] |
| --- | --- | --- | --- | --- |
| COc1ccc(-n2nc(Sc3ccc(Cl)cc3)cc(CC[C@@H](C)NC(=O)[C@H]3CNC[C@@H]3c3ccc(Cl)cc3)c2=O)cc1 | 70 | 230 | 45 |  |
| COc1ccc(N2N=C(Sc3ccc(Cl)cc3)CC(CC[C@@H](C)NC(=O)C3CNC[C@@H]3c3ccc(F)cc3)C2=O)cc1 (single isomer, unassigned; 66) [listing 1 of 2 here] |  | 1200 | 47 |  |
| COc1ccc(N2N=C(Sc3ccc(Cl)cc3)CC(CC[C@@H](C)NC(=O)[C@@H]3CNCC[C@H]3c3ccc(F)cc3)C2=O)cc1 (stereo in doubt; 60) |  |  |  | 20 |
| COc1ccc(N2N=C(Sc3ccc(Cl)cc3)CC(CC[C@@H](C)NC(=O)[C@@H]3CNCC[C@H]3c3ccc(F)cc3)C2=O)cc1 (stereo in doubt; 61) | 32 |  |  |  |
| COc1ccc(-n2nc(Sc3ccc(Cl)cc3)cc(CC[C@@H](C)NC(=O)[C@H]3CN(C)CC[C@@H]3c3ccc(F)cc3)c2=O)cc1 | 59 | 320 | 4.7 |  |
| COc1ccc(-n2nc(Sc3ccc(Cl)cc3)cc(CC[C@@H](C)NC(=O)[C@H]3CCNC[C@@H]3Cc3ccccc3)c2=O)cc1 |  |  | 750 | 36 |
| COc1ccc(N2N=C(Sc3ccc(Cl)cc3)CC(CC[C@@H](C)NC(=O)[C@@H]3CCNC[C@H]3c3ccc(F)cc3)C2=O)cc1 (stereo in doubt; 64) [listing 1 of 2 here] |  | 2000 | 1300 |  |
| COc1ccc(N2N=C(Sc3ccc(Cl)cc3)CC(CC[C@@H](C)NC(=O)C3CNC[C@H]3c3ccc(F)cc3)C2=O)cc1 (single isomer, unassigned; 68) | 26 |  |  |  |
| COc1ccc(-n2nc(Sc3ccc(Cl)cc3)cc(CC[C@@H](C)NC(=O)[C@H]3CNCC[C@@H]3c3cccc(F)c3)c2=O)cc1 |  |  | 490 | 29 |
| COc1ccc(N2N=C(Sc3ccc(Cl)cc3)CC(CC[C@@H](C)NC(=O)[C@H]3CNCC[C@@H]3c3ccc(F)cc3)C2=O)cc1 (stereo in doubt; 25) |  | 390 | 26 |  |
| COc1ccc(N2N=C(Sc3ccc(Cl)cc3)CC(CC[C@@H](C)NC(=O)[C@H]3CCNC[C@@H]3c3ccc(F)cc3)C2=O)cc1 (stereo in doubt; 62) | 100 |  |  |  |
| COc1ccc(-n2nc(Sc3ccc(Cl)cc3)cc(CC[C@@H](C)NC(=O)[C@H]3CNCCN3c3ccc(F)cc3)c2=O)cc1 |  |  | 950 | 6 |
| COc1ccc(-n2nc(Sc3ccc(Cl)cc3)cc(CC[C@@H](C)NC(=O)[C@H]3CNC[C@@H]3c3ccccc3F)c2=O)cc1 | 82 | 710 | 160 |  |
| COc1ccc(-n2nc(Sc3ccc(Cl)cc3)cc(CC[C@@H](C)NC(=O)[C@H]3CNCC[C@@H]3c3ccc(Cl)cc3Cl)c2=O)cc1 |  |  | 3.2 | 2 |
| COc1ccc([C@H]2CNC[C@@H]2C(=O)N[C@H](C)CCc2cc(Sc3ccc(Cl)cc3)nn(-c3ccc(OC)cc3)c2=O)cc1 | 67 | 430 | 19 |  |
| COc1ccc(-n2nc(Sc3ccc(Cl)cc3)cc(CC[C@@H](C)NC(=O)[C@H]3CCNC[C@@H]3c3ccccc3F)c2=O)cc1 | 75 | 550 | 100 |  |
| COc1ccc(-n2nc(Sc3ccc(Cl)cc3)cc(CC[C@@H](C)NC[C@H]3CNCC[C@@H]3c3ccc(F)cc3)c2=O)cc1 | 60 | 470 | 28 |  |
| COc1ccc(-n2nc(Sc3ccc(Cl)cc3)cc(CC[C@@H](C)NC(=O)[C@H]3CCNC[C@@H]3c3ccc(C#N)cc3)c2=O)cc1 | 81 | 120 | 45 |  |
| COc1ccc(N2N=C(Sc3ccc(Cl)cc3)CC(CC[C@@H](C)NC(=O)C3CNC[C@H]3c3ccc(F)cc3)C2=O)cc1 (single isomer, unassigned; 69) | 48 |  |  |  |
| COc1ccc(-n2nc(Sc3ccc(Cl)cc3)cc(CC[C@@H](C)NC(=O)[C@H]3CNCC[C@@H]3c3cccc(C(F)(F)F)c3)c2=O)cc1 |  |  | 100 | 40 |
| COc1ccc(N2N=C(Sc3ccc(Cl)cc3)CC(CC[C@@H](C)NC(=O)[C@@H]3CCNC[C@H]3c3ccc(F)cc3)C2=O)cc1 (stereo in doubt; 65) |  | 1400 | 280 |  |
| COc1ccc(-n2nc(Sc3ccc(Cl)cc3)cc(CC[C@@H](C)NC(=O)[C@H]3CNCC[C@@H]3c3ccccc3)c2=O)cc1 | 77 |  |  |  |
| COc1ccc(-n2nc(Sc3ccc(Cl)cc3)cc(CC[C@@H](C)NC(=O)[C@H]3CCNC[C@@H]3c3ccc(Cl)cc3Cl)c2=O)cc1 | 30 | 2400 | 36 |  |
| COc1ccc(-n2nc(Sc3ccc(Cl)cc3)cc(CC[C@@H](C)NC(=O)[C@H]3CNCC[C@@H]3c3ccccc3F)c2=O)cc1 | 58 | 550 | 13 |  |
| COc1ccc(N2N=C(Sc3ccc(Cl)cc3)CC(CC[C@@H](C)NC(=O)C3CNC[C@@H]3c3ccc(F)cc3)C2=O)cc1 (single isomer, unassigned; 66) [listing 2 of 2 here] | 90 |  |  |  |
| COc1ccc(N2N=C(Sc3ccc(Cl)cc3)CC(CC[C@@H](C)NC(=O)[C@@H]3CCNC[C@H]3c3ccc(F)cc3)C2=O)cc1 (stereo in doubt; 64) [listing 2 of 2 here] | 16 |  |  |  |
